Assays:
Type in all cases: biochemical
recombinant hSSAO = recombinant hSSAO (Homo sapiens (Human), UniProt Q16853); assay: SSAO Activity Assay (MAO-Glo assay kit); details: 40 μM substrate, 30 mins pre-incubation
Experimental: (§1) The biological activities of the compounds of the present application can be assessed with methods and assays known in the art. For example, the potency of the compounds of the present application can be evaluated with an SSAO Activity Assay. Briefly, compounds of the present application can be applied to recombinant hSSAO, hMAO-A, and hMAO-B isoforms and the amine oxidase activity of the enzymes are measured after the addition and subsequent oxidation of the luminogenic substrate (e.g., with the MAO-Glo assay kit from Promega). The IC50 can be calculated, for example, by fitting the dose response curve using a 4-parameter non-linear regression routine.
(§2) Amine oxidase activity of recombinant hSSAO, hMAO-A, and hMAO-B isoforms are measured using the MAO-Glo assay kit (Promega, V1402). Ten nL test compounds (with DMSO as vehicle, 0.1% v/v for hSSAO, hMAO-A and hMAO-B) were added into assay plates by Echo, and pre-incubated with 5 μL of enzyme for 30 mins at room temperature before the addition of 5 μL of luminogenic substrate. The substrate concentration is 40 μM for human recombinant SSAO, 40 μM for human recombinant MAO-A, and 4 μM for human recombinant MAO-B. The hSSAO and hMAO-A assays were conducted in the MAO-A reaction buffer in the kit, and the MAO-B assay was conducted in the MAO-B reaction buffer. Oxidation of the substrate was conducted for 1 hr, before the addition of detecting reagent according the manufacture's protocol. The IC50 value of the tested compounds was calculated by fitting the dose response curve using a 4-parameter non-linear regression routine.

recombinant hMAO-A = recombinant hMAO-A (Homo sapiens (Human), UniProt P21397); assay: MAO-A activity assay (MAO-Glo assay kit); details: 40 μM substrate, 30 mins pre-incubation
Experimental: as §1, §2

recombinant hMAO-B = recombinant hMAO-B (Homo sapiens (Human), UniProt P27338); assay: MAO-B activity assay (MAO-Glo assay kit); details: 4 μM substrate, 30 mins pre-incubation
Experimental: as §1, §2

Sequence of recombinant hMAO-A (P21397 whole entry): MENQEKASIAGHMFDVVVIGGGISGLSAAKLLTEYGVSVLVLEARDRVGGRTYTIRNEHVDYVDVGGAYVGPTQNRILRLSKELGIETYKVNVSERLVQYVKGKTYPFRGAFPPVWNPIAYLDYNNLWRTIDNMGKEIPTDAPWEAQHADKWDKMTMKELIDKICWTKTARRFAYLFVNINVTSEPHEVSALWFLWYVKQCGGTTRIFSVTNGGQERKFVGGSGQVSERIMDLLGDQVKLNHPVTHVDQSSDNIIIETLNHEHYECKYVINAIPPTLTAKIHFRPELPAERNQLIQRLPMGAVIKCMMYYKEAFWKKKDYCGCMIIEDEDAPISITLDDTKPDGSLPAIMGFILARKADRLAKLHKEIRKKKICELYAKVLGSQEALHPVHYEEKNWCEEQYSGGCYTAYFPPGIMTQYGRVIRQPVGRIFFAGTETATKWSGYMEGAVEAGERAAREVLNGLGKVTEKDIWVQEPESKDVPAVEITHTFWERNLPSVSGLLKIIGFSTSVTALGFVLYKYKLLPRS
Sequence of recombinant hSSAO (Q16853 whole entry, canonical isoform): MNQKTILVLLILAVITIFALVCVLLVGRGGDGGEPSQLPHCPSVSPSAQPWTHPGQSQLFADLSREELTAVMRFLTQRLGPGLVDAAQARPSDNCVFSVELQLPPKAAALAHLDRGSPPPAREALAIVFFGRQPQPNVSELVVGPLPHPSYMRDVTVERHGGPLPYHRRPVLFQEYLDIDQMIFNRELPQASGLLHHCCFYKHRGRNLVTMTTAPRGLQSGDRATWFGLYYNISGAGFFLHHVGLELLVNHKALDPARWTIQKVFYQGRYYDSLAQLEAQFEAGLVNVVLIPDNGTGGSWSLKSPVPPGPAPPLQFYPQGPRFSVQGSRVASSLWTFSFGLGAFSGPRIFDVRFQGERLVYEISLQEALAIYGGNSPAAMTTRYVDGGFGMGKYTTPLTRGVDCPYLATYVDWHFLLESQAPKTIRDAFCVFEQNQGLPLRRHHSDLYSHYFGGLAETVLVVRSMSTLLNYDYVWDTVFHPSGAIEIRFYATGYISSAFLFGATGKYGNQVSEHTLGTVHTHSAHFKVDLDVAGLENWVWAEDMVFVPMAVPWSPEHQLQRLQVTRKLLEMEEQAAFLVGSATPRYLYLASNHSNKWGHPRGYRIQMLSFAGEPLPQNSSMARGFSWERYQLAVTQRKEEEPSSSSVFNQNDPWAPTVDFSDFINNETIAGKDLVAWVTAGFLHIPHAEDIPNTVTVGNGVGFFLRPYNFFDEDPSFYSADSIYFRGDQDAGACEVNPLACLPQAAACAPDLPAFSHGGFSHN
Sequence of recombinant hMAO-B (P27338 whole entry): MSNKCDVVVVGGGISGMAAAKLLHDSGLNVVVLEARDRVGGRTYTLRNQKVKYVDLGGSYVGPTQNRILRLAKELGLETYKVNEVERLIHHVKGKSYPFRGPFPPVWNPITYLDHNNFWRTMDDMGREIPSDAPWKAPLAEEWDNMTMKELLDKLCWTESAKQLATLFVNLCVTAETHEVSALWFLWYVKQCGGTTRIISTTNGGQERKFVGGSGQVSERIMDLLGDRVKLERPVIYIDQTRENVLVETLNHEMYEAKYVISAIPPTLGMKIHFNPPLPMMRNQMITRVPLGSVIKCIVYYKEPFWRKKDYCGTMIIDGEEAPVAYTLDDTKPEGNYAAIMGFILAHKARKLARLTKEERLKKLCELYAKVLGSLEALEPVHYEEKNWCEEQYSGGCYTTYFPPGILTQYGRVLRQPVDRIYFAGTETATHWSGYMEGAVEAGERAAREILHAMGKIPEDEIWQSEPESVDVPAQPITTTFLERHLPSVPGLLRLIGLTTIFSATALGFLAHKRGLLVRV

SMILES | IC50 (recombinant hSSAO) | IC50 (recombinant hMAO-A) | IC50 (recombinant hMAO-B)
NC/C(=C\F)COc1ccc(S(=O)(=O)Cc2cccc(C(=O)N3CCCC3)c2)cc1 [Compound 47, (E)-(3-(((4-((2-(aminomethyl)-3-fluoroallyl)oxy)phenyl)sulfonyl)methyl)phenyl)(pyrrolidin-1-yl)methanone] | 0.1 to 0.5 µM | > 30 µM | > 30 µM
NC/C(=C\F)COc1ccc(S(=O)(=O)CN2CCC3(CCCC3)C2=O)cc1 [Compound 127, (E)-2-(((4-((2-(aminomethyl)-3-fluoroallyl)oxy)phenyl)sulfonyl)methyl)-2-azaspiro[4.4]nonan-1-one] | 0.1 to 0.5 µM | > 30 µM | < 10 µM
CC(C)(C)C(=O)N1CCN(CS(=O)(=O)c2ccc(OC/C(=C/F)CN)cc2)C(=O)C1 [compound 133, (E)-1-(((4-((2-(aminomethyl)-3-fluoroallyl)oxy)phenyl)sulfonyl)methyl)-4-pivaloylpiperazin-2-one] | 0.1 to 0.5 µM | 10 to 30 µM | –
COCS(=O)(=O)c1ccc(OC/C(=C/F)CN)cc1 [compound 28, (E)-3-fluoro-2-((4-((methoxymethyl)sulfonyl)phenoxy)methyl)prop-2-en-1-amine] | – | – | 10 to 30 µM
CC1CCN(C23CCC(CS(=O)(=O)c4ccc(OC/C(=C/F)CN)cc4)(CC2)CC3)C1=O (stereo not shown) [compound 83, (E)-1-(4-(((4-((2-(aminomethyl)-3-fluoroallyl)oxy)phenyl)sulfonyl)methyl)bicyclo[2.2.2]octan-1-yl)-3-methylpyrrolidin-2-one] | – | – | 10 to 30 µM
CC(C)C(=O)N(C)CC(C)(C)CS(=O)(=O)c1ccc(OC/C(=C/F)CN)cc1 [compound 96, (E)-N-(3-((4-((2-(aminomethyl)-3-fluoroallyl)oxy)phenyl)sulfonyl)-2,2-dimethylpropyl)-N-methylisobutyramide] | – | – | 10 to 30 µM
NC/C(=C\F)COc1ccc(S(=O)(=O)CC23CCC(C(=O)NC4CCC4)(CC2)CC3)cc1 [compound 64, (E)-4-(((4-((2-(aminomethyl)-3-fluoroallyl)oxy)phenyl)sulfonyl)methyl)-N-cyclobutylbicyclo[2.2.2]octane-1-carboxamide] | – | – | 10 to 30 µM
CC1(C(=O)N2CCN(CS(=O)(=O)c3ccc(OC/C(=C/F)CN)cc3)C(=O)C2)CCC1 [compound 134, (E)-1-(((4-((2-(aminomethyl)-3-fluoroallyl)oxy)phenyl)sulfonyl)methyl)-4-(1-methylcyclobutane-1-carbonyl)piperazin-2-one] | 0.1 to 0.5 µM | 10 to 30 µM | –
NC/C(=C\F)COc1ccc(S(=O)(=O)CC23CCC(C4(O)CC4)(CC2)CC3)cc1 [compound 18, (E)-1-(4-(((4-((2-(aminomethyl)-3-fluoroallyl)oxy)phenyl)sulfonyl)methyl)bicyclo[2.2.2]octan-1-yl)cyclopropan-1-ol] | – | – | 10 to 30 µM
NC/C(=C\F)COc1ccc(S(=O)(=O)CC23CCC(NC(=O)C4CC4)(CC2)CC3)cc1 [compound 76, (E)-N-(4-(((4-((2-(aminomethyl)-3-fluoroallyl)oxy)phenyl)sulfonyl)methyl)bicyclo[2.2.2]octan-1-yl)cyclopropanecarboxamide] | – | – | 10 to 30 µM
NC/C(=C\F)COc1ccc(S(=O)(=O)COCC2CCN(C(=O)C3(C(F)(F)F)CC3)CC2)cc1 [compound 35, (E)-(4-((((4-((2-(aminomethyl)-3-fluoroallyl)oxy)phenyl)sulfonyl)methoxy)methyl)piperidin-1-yl)(1-(trifluoromethyl)cyclopropyl)methanone] | 0.02 to 0.1 µM | – | 10 to 30 µM
NC/C(=C\F)COc1ccc(S(=O)(=O)Cc2ccc(C(=O)NC3CCC3)c(C(F)(F)F)c2)cc1 [compound 89, (E)-4-(((4-((2-(aminomethyl)-3-fluoroallyl)oxy)phenyl)sulfonyl)methyl)-N-cyclobutyl-2-(trifluoromethyl)benzamide] | 0.1 to 0.5 µM | – | 10 to 30 µM
C[C@@H](CS(=O)(=O)c1ccc(OC/C(=C/F)CN)cc1)N1CCCCC1=O [compound 108, (S,E)-1-(1-((4-((2-(aminomethyl)-3-fluoroallyl)oxy)phenyl)sulfonyl)propan-2-yl)piperidin-2-one] | 0.02 to 0.1 µM | – | –

Second part, the compound after the results:

IC50 (recombinant hSSAO) | IC50 (recombinant hMAO-A) | IC50 (recombinant hMAO-B) | SMILES
< 0.02 µM | > 30 µM | > 30 µM | NC/C(=C/F)COc1ccc(S(=O)(=O)CC23CCC(C(=O)NC4CCC4)(CC2)CC3)cc1 [Compound 140, (Z)-4-(((4-((2-(aminomethyl)-3-fluoroallyl)oxy)phenyl)sulfonyl)methyl)-N-cyclobicyclo[2.2.2]octane-1-carboxamide]
< 0.02 µM | > 30 µM | 10 to 30 µM | NC/C(=C\F)COc1ccc(S(=O)(=O)CC23CCC(C(=O)NC4CC4)(CC2)CC3)cc1 [Compound 75, (E)-4-(((4-((2-(aminomethyl)-3-fluoroallyl)oxy)phenyl)sulfonyl)methyl)-N-cyclopropylbicyclo[2.2.2]octane-1-carboxamide]
< 0.02 µM | > 30 µM | 10 to 30 µM | NC/C(=C\F)COc1ccc(S(=O)(=O)CC23CCC(C(=O)N4CCCC4)(CC2)CC3)cc1 [Compound 61, (E)-(4-(((4-((2-(aminomethyl)-3-fluoroallyl)oxy)phenyl)sulfonyl)methyl)bicyclo[2.2.2]octan-1-yl)(pyrrolidin-1-yl)methanone]
0.02 to 0.1 µM | > 30 µM | < 10 µM | CC1(C)COCC(=O)N1CS(=O)(=O)c1ccc(OC/C(=C/F)CN)cc1 [Compound 132, (E)-4-(((4-((2-(aminomethyl)-3-fluoroallyl)oxy)phenyl)sulfonyl)methyl)-5,5-dimethylmorpholin-3-one]
0.02 to 0.1 µM | > 30 µM | > 30 µM | NC/C(=C\F)COc1ccc(S(=O)(=O)CC2CCN(C(=O)C3CC(F)(F)C3)CC2)cc1 [Compound 51, (E)-(4-(((4-((2-(aminomethyl)-3-fluoroallyl)oxy)phenyl)sulfonyl)methyl)piperidin-1-yl)(3,3-difluorocyclobutyl)methanone]
0.02 to 0.1 µM | > 30 µM | 10 to 30 µM | NC/C(=C\F)COc1ccc(S(=O)(=O)CC23CCC(NC(=O)C4(C(F)(F)F)CC4)(CC2)CC3)cc1 [Compound 85, (E)-N-(4-(((4-((2-(aminomethyl)-3-fluoroallyl)oxy)phenyl)sulfonyl)methyl)bicyclo[2.2.2]octan-1-yl)-1-(trifluoromethyl)cyclopropane-1-carboxamide]
0.02 to 0.1 µM | 10 to 30 µM | – | NC/C(=C\F)COc1ccc(S(=O)(=O)CC2CCOCC2)c(Cl)c1 [compound 8, (E)-2-((3-chloro-4-(((tetrahydro-2H-pyran-4-yl)methyl)sulfonyl)phenoxy)methyl)-3-fluoroprop-2-en-1-amine]
0.02 to 0.1 µM | 10 to 30 µM | – | CC1(CS(=O)(=O)c2ccc(OC/C(=C/F)CN)cc2)CCN(C(=O)C2(C)CC2)CC1 [compound 57, (E)-(4-(((4-((2-(aminomethyl)-3-fluoroallyl)oxy)phenyl)sulfonyl)methyl)-4-methylpiperidin-1-yl)(1-methylcyclopropyl)methanone]
0.02 to 0.1 µM | 10 to 30 µM | – | CC(C)C(=O)N1CCC(CS(=O)(=O)c2ccc(OC/C(=C/F)CN)cc2)C1 (stereo not shown) [compound 99, (E)-1-(3-(((4-((2-(aminomethyl)-3-fluoroallyl)oxy)phenyl)sulfonyl)methyl)pyrrolidin-1-yl)-2-methylpropan-1-one]
0.02 to 0.1 µM | 10 to 30 µM | – | NC/C(=C\F)COc1ccc(S(=O)(=O)CC2CCN(C(=O)C34CC(F)(C3)C4)CC2)cc1 [compound 40, (E)-(4-(((4-((2-(aminomethyl)-3-fluoroallyl)oxy)phenyl)sulfonyl)methyl)piperidin-1-yl)(3-fluorobicyclo[1.1.1]pentan-1-yl)methanone]
0.02 to 0.1 µM | – | 10 to 30 µM | CC(C)(C)C(=O)NC12CCC(CS(=O)(=O)c3ccc(OC/C(=C/F)CN)cc3)(CC1)C2 [compound 145, (E)-N-(4-(((4-((2-(aminomethyl)-3-fluoroallyl)oxy)phenyl)sulfonyl)methyl)bicyclo[2.2.1]heptan-1-yl)pivalamide]
0.02 to 0.1 µM | – | 10 to 30 µM | NC/C(=C\F)COc1ccc(S(=O)(=O)CC23CCC(O)(CC2)CC3)cc1 [compound 17, (E)-4-(((4-((2-(aminomethyl)-3-fluoroallyl)oxy)phenyl)sulfonyl)methyl)bicyclo[2.2.2]octan-1-ol]
0.02 to 0.1 µM | 10 to 30 µM | – | N#CC1(CS(=O)(=O)c2ccc(OC/C(=C/F)CN)cc2)CCOCC1 [compound 12, (E)-4-(((4-((2-(aminomethyl)-3-fluoroallyl)oxy)phenyl)sulfonyl)methyl)tetrahydro-2H-pyran-4-carbonitrile]
0.02 to 0.1 µM | – | 10 to 30 µM | CCN(CC(C)(C)CS(=O)(=O)c1ccc(OC/C(=C/F)CN)cc1)C(=O)C(C)C [compound 98, (E)-N-(3-((4-((2-(aminomethyl)-3-fluoroallyl)oxy)phenyl)sulfonyl)-2,2-dimethylpropyl)-N-ethylisobutyramide]

Reference: US11472769B2, “SSAO inhibitors and use thereof” (Eccogene (Shanghai) Co., Ltd., priority 2019, dated 2022)
